Source: patent publication US4464385A, “Treatment of diabetic complications with hydantoins” (Alcon Laboratories, Inc., priority 1982, dated 1984)

System: cataracts in rats
Experiment: Prevention or retardation of cataracts in galactose-fed rats
Type: in vivo, rat
Conditions: 0.0025% in diet
Experimental: The compounds to be tested were:
Test compound/diet mixtures were formulated as follows: […]
Similarly, the 0.01% level was designed to provide a drug concentration of 20 mg per kilogram per day.
All animals were fed the Purina Laboratory Chow and water, ad libitum for a two day acclimatization period. The indicated test compound/diet mixture then was introduced to all animals on Study Day 1 and the animals were maintained on this diet throughout thirty days of the study.
Sufficient amounts of test compound/diet mixture were maintained in the food hoppers to allow the animals to eat ad libitum. All aliquots of test compound/diet mixture added to the food hoopers were weighed and the weights, as well as day of addition, recorded.
Twelve animals were assigned to each treatment with each compound at the indicated percentage by total weight of feed. All eyes were examined with a handheld ophthalmoscope and/or penlight.

## O=C1NC(=O)C2(CCOc3ccc(F)cc32)N1 (single isomer, unassigned) [SARGES**, dspiro (6fluoro-chroman-4,4imidazolidine)-2',5dione, reference compound]
  time of suppression, time to vacuole formation: 20.8 days
30 days
  suppression of the formation of nuclear cataracts: 100%
